Experimental data from US9670227B2, “Thienopyrimidine derivatives, a process for their preparation and pharmaceutical compositions containing them” (LES LABORATOIRES SERVIER, priority 2013, dated 2017).

biological target: Mcl-1 protein (UniProtKB primary accession number: Q07820) (Homo sapiens, UniProt Q07820); experiment: Inhibition of Mcl-1 by fluorescence polarisation, Method 1; assay type: binding; settings: fluorescence polarisation test; Method 2 values are underlined in the patent (underlining not visible here); read-out: IC50 (M) Mcl-1 FP
Summary of the method: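 FP readout of relative binding potency. Mcl-1 5 nM final, fluorescein-labelled ligand 1 nM final; buffer 10 mM HEPES, 150 mM NaCl, 0.05% Tween 20, pH 7.4; 11-pt dilution series, 5% DMSO final.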

Chain of Mcl-1 protein (Q07820 whole entry): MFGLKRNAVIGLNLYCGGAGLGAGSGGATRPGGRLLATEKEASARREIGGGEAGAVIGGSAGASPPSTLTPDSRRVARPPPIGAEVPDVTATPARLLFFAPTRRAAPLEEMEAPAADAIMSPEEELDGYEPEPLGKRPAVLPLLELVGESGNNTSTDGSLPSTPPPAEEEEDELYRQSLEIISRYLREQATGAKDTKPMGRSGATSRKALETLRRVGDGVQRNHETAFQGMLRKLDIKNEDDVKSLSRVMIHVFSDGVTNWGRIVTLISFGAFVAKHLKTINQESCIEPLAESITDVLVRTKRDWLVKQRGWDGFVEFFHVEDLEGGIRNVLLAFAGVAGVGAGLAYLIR

Point of comparison: COc1ccccc1CC(Oc1ncnc2sc(-c3ccco3)c(-c3ccc(OCCN4CCN(CC(F)(F)F)CC4)c(Cl)c3C)c12)C(=O)O [Example 327, (2R)-2-{[(5Sa)-5-(3-chloro-2-methyl-4-{2-[4-(2,2,2-trifluoroethyl)piperazin-1-yl]ethoxy}phenyl)-6-(furan-2-yl)thieno[2,3-d]pyrimidin-4-yl]oxy}-3-(2-methoxyphenyl)propanoic acid], IC50 1.5e-08 M. Against it:
- Cc1c(-c2c(-c3ccco3)sc3ncnc(OC(Cc4ccccc4OCc4cncn4C)C(=O)O)c23)ccc(OCCN2CCN(C)CC2)c1Cl [Example 276, (2R)-2-{[(5Sa)-5-{3-chloro-2-methyl-4-[2-(4-methylpiperazin-1-yl)ethoxy]phenyl}-6-(furan-2-yl)thieno[2,3-d]pyrimidin-4-yl]oxy}-3-{2-[(1-methyl-1H-imidazol-5-yl)methoxy]phenyl}propanoic acid] — 2.4-fold lower, 6.2e-09 M
- COc1ccccc1CC(Oc1ncnc2sc(-c3ccco3)c(-c3ccc(OCCN4CC[N+](C)([O-])CC4)c(Cl)c3C)c12)C(=O)O [Example 296, (2R)-2-{[(5Sa)-5-{3-chloro-2-methyl-4-[2-(4-methyl-4-oxidopiperazin-1-yl)ethoxy]phenyl}-6-(furan-2-yl)thieno[2,3-d]pyrimidin-4-yl]oxy}-3-(2-methoxyphenyl)propanoic acid] — 1.6-fold lower, 9.3e-09 M
- COc1ccccc1CC(Oc1ncnc2sc(-c3ccco3)c(-c3ccc(OCC[N+]4([O-])CC[N+](C)([O-])CC4)c(Cl)c3C)c12)C(=O)O [Example 297, (2R)-2-{[(5Sa)-5-{3-chloro-2-methyl-4-[2-(4-methyl-1,4-dioxidopiperazin-1-yl)ethoxy]phenyl}-6-(furan-2-yl)thieno[2,3-d]pyrimidin-4-yl]oxy}-3-(2-methoxyphenyl)propanoic acid] — 2.3-fold lower, 6.6e-09 M
- COc1ccccc1CC(Oc1ncnc2sc(-c3ccco3)c(-c3ccc(OCC4CNCCO4)c(Cl)c3C)c12)C(=O)O [Example 315, (2R)-2-({(5Sa)-5-[3-chloro-2-methyl-4-(morpholin-2-ylmethoxy)phenyl]-6-(furan-2-yl)thieno[2,3-d]pyrimidin-4-yl}oxy)-3-(2-methoxyphenyl)propanoic acid] — within 1.5-fold, 2.2e-08 M
- COc1ccccc1CC(Oc1ncnc2sc(-c3ccco3)c(-c3ccc(OCCN4CCN(C)C(=O)C4)c(Cl)c3C)c12)C(=O)O [Example 321, (2R)-2-{[(5Sa)-5-{3-chloro-2-methyl-4-[2-(4-methyl-3-oxopiperazin-1-yl)ethoxy]phenyl}-6-(furan-2-yl)thieno[2,3-d]pyrimidin-4-yl]oxy}-3-(2-methoxyphenyl)propanoic acid] — 2.5-fold lower, 6e-09 M
- COc1ccccc1CC(Oc1ncnc2sc(-c3ccco3)c(-c3ccc(OCCN4CCN(C(C)=O)CC4)c(Cl)c3C)c12)C(=O)O [Example 323, (2R)-2-{[(5Sa)-5-{4-[2-(4-acetylpiperazin-1-yl)ethoxy]-3-chloro-2-methylphenyl}-6-(furan-2-yl)thieno[2,3-d]pyrimidin-4-yl]oxy}-3-(2-methoxyphenyl)propanoic acid] — 1.7-fold lower, 8.8e-09 M
- COc1ccccc1CC(Oc1ncnc2sc(-c3ccco3)c(-c3ccc(OCCN4CCN(c5ccccc5)CC4)c(Cl)c3C)c12)C(=O)O [Example 325, (2R)-2-{[(5Sa)-5-{3-chloro-2-methyl-4-[2-(4-phenylpiperazin-1-yl)ethoxy]phenyl}-6-(furan-2-yl)thieno[2,3-d]pyrimidin-4-yl]oxy}-3-(2-methoxyphenyl)propanoic acid] — 3.5-fold higher, 5.2e-08 M
- COc1ccccc1CC(Oc1ncnc2sc(-c3ccco3)c(-c3ccc(OCCN4CCN(CC(N)=O)CC4)c(Cl)c3C)c12)C(=O)O [Example 326, (2R)-2-{[(5Sa)-5-(4-{2-[4-(2-amino-2-oxoethyl)piperazin-1-yl]ethoxy}-3-chloro-2-methylphenyl)-6-(furan-2-yl)thieno[2,3-d]pyrimidin-4-yl]oxy}-3-(2-methoxyphenyl)propanoic acid] — 1.9-fold lower, 7.9e-09 M
